Experimental data taken from PMC11396129, “Oxindole–benzothiazole hybrids as CDK2 inhibitors and anticancer agents: design, synthesis and biological evaluation” (BMC Chemistry, 2024).

How the values were obtained:
[1] = test system: SK-MEL-2; assay: NCI 60 panel growth inhibition (SRB), melanoma; assay type: cell-based, human; conditions: SK-MEL-2, 10 μM
In short: (§1)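 Percent growth per concentration, normalised to Tz and control wells, yields three dose-response parameters including TGI (Ti = Tz). Where activity is not reached or is exceeded, the value is reported as greater or less than the tested extreme.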

[2] = test system: DU-145; assay: NCI 60 panel growth inhibition (SRB), prostate cancer; assay type: cell-based, human; conditions: DU-145, 10 μM
Procedure: (§2) Screening of cytotoxic activity against a panel of sixty human tumor cell lines The selected compounds by NCI were evaluated for their anticancer activity in a two- stage process. […] Then, the output from the single dose screen is reported as a mean graph. […] Assay protocol. […] For a typical screening experiment, cells are inoculated into 96 well microtiter plates in 100 µL at plating densities ranging from 5000 to 40,000 cells/well depending on the doubling time of individual cell lines. […] After 24 h, two plates of each cell line are fixed in situ with TCA, to represent a measurement of the cell population for each cell line at the time of drug addition (Tz). The experimental drugs are solubilized in dimethyl sulfoxide at 400-fold the desired final maximum test concentration and stored frozen prior to use. At the time of drug addition, an aliquot of frozen concentrate is thawed and diluted to twice the desired final maximum test concentration with complete medium containing 50 µg/mL gentamicin. Additional four, 10-fold or ½ log serial dilutions are made to provide a total of five drug concentrations plus control. […] For adherent cells, the assay is terminated by the addition of cold TCA. […] The supernatant is discarded, and the plates are washed five times with tap water and air dried. […] Using the seven absorbance measurements [time zero, (Tz), control growth, (C), and test growth in the presence of drug at the five concentration levels (Ti)], the percentage growth is calculated at each of the drug concentrations levels. Percentage growth inhibition is calculated as: [(Ti Tz)/(C–Tz)] x 100 for concentrations for which Ti>/=Tz and [(Ti-Tz)/Tz] x 100 for concentrations for which Ti < Tz. Three dose response parameters are calculated for each experimental agent. […] The drug concentration resulting in total growth inhibition (TGI) is calculated from Ti = Tz. […] Values are calculated for each of these three parameters if the level of activity is reached; however, if the effect is not reached or is exceeded, the value for that parameter is expressed as greater or less than the maximum or minimum concentration tested.

[3] = test system: PC-3; assay: as above; assay type: cell-based, human; conditions: PC-3, 10 μM
Procedure: as §2

[4] = test system: NCI-H226; assay: NCI 60 panel growth inhibition (SRB), non-small cell lung cancer; assay type: cell-based, human; conditions: NCI-H226, 10 μM
Procedure: as §2

[5] = test system: NCI-H460; assay: as above; assay type: cell-based, human; conditions: NCI-H460, 10 μM
Procedure: as §2

[6] = test system: HOP-92; assay: as above; assay type: cell-based, human; conditions: HOP-92, 10 μM
Procedure: as §2

[7] = test system: NCI-H23; assay: as above; assay type: cell-based, human; conditions: NCI-H23, 10 μM
Procedure: as §2

[8] = test system: NCI-H322M; assay: as above; assay type: cell-based, human; conditions: 10 μM
Procedure: as §2

[9] = test system: A549/ATCC; assay: as above; assay type: cell-based, human; conditions: 10 μM
Procedure: as §2

[10] = test system: EKVX; assay: as above; assay type: cell-based, human; conditions: 10 μM
Procedure: as §2

[11] = test system: NCI-H522; assay: as above; assay type: cell-based, human; conditions: NCI-H522, 10 μM
Procedure: as §2

[12] = test system: IGROV1; assay: NCI 60 panel growth inhibition (SRB), ovarian cancer; assay type: cell-based, human; conditions: IGROV1, 10 μM
Procedure: as §2

[13] = test system: OVCAR-8; assay: as above; assay type: cell-based, human; conditions: OVCAR-8, 10 μM
Procedure: as §2

[14] = test system: OVCAR-4; assay: as above; assay type: cell-based, human; conditions: OVCAR-4, 10 μM
Procedure: as §2

[15] = test system: NCI/ADR-RES; assay: as above; assay type: cell-based, human; conditions: 10 μM
Procedure: as §2

[16] = test system: OVCAR-5; assay: as above; assay type: cell-based, human; conditions: OVCAR-5, 10 μM
Procedure: as §2

[17] = test system: OVCAR-3; assay: as above; assay type: cell-based, human; conditions: OVCAR-3, 10 μM
Procedure: as §2

[18] = test system: HT29; assay: NCI 60 panel growth inhibition (SRB), colon cancer; assay type: cell-based, human; conditions: HT29, 10 μM
In short: as §1

[19] = test system: MOLT-4; assay: NCI 60 panel growth inhibition (SRB), leukemia; assay type: cell-based, human; conditions: MOLT-4, 10 μM
Procedure: as §2

[20] = test system: CCRF-CEM; assay: NCI 60 panel growth inhibition (SRB), leukemia; assay type: cell-based, human; conditions: 10 μM
Procedure: as §2

[21] = test system: K-562; assay: NCI 60 panel growth inhibition (SRB), leukemia; assay type: cell-based, human; conditions: K-562, 10 μM
Procedure: as §2

[22] = test system: RPMI-8226; assay: NCI 60 panel growth inhibition (SRB), leukemia; assay type: cell-based, human; conditions: RPMI-8226, 10 μM
Procedure: as §2

[23] = test system: SR; assay: NCI 60 panel growth inhibition (SRB), leukemia; assay type: cell-based, human; conditions: 10 μM
Procedure: as §2

[24] = test system: HL-60(TB); assay: NCI 60 panel growth inhibition (SRB), leukemia; assay type: cell-based, human; conditions: HL-60(TB), 10 μM
Procedure: as §2

[25] = test system: U251; assay: NCI 60 panel growth inhibition (SRB), CNS cancer; assay type: cell-based, human; conditions: U251, 10 μM
In short: as §1

[26] = test system: HOP-62; assay: NCI 60 panel growth inhibition (SRB), non-small cell lung cancer; assay type: cell-based, human; conditions: HOP-62, 10 μM
Procedure: as §2

[27] = test system: SK-OV-3; assay: NCI 60 panel growth inhibition (SRB), ovarian cancer; assay type: cell-based, human; conditions: SK-OV-3, 10 μM
Procedure: as §2

Structure (SMILES) | GI% [2] | GI% [3] | GI% [4] | GI% [5] | GI% [6] | GI% [7] | GI% [8] | GI% [9] | GI% [10] | GI% [11] | GI% [12] | GI% [13] | GI% [14] | GI% [15] | GI% [16] | GI% [17] | GI% [18] | GI% [19] | GI% [20] | GI% [21] | other results
COc1ccc(-c2nc3ccccc3s2)cc1OCC(=O)NN=C1C(=O)Nc2ccc(Cl)cc21 [Compound 9q, 2-(5-(Benzo[d]thiazol-2-yl)-2-methoxyphenoxy)-N′-(5-chloro-2-oxoindolin-3-ylidene)acetohydrazide] | 19.41% | 26.21% | 24.77% | 44.39% | 52.70% | 42.70% | – (GI% < 5%) | 20.18% | 25.37% | 21.77% | 16.12% | 59.73% | 25.24% | 47.55% | – (GI% < 5%) | 31.89% | 6.74% | 71.36% | 81.35% | 50.00% | GI% [1]: 56.54%; GI% [22]: 46.48%; GI% [23]: 18.57%; GI% [24]: – (GI% < 5%); GI% [25]: 63.50%; melting point: 260 to 262 °C
COc1ccc(-c2nc3ccccc3s2)cc1OCC(=O)NN=C1C(=O)Nc2ccc(Br)cc21 [Compound 9r, 2-(5-(Benzo[d]thiazol-2-yl)-2-methoxyphenoxy)-N′-(5-bromo-2-oxoindolin-3-ylidene)acetohydrazide] | – (GI% < 5%) | 16.13% | 10.50% | – (GI% < 5%) | 32.33% | 20.81% | – (GI% < 5%) | 7.78% | 7.18% | 8.27% | – (GI% < 5%) | 38.56% | – (GI% < 5%) | 27.04% | – (GI% < 5%) | – (GI% < 5%) | – (GI% < 5%) | 13.12% | 42.87% | 24.52% | GI% [1]: 17.63%; GI% [22]: 19.17%; GI% [23]: – (GI% < 5%); GI% [24]: – (GI% < 5%); GI% [25]: 30.21%; melting point: 271 to 273 °C
CNC(=O)c1nn(C)c2c1C(C)(C)Cc1cnc(Nc3ccc(N4CCN(C)CC4)cc3)nc1-2 [Milciclib, reference compound] | 84.50% | 92.10% | 87.70% | 92.50% | 96.20% | 97.60% | 84.90% | 108% | 94.3% | 129.40% | 97.50% | 91.10% | 87.10% | 90.10% | 90.90% | 79.30% | 116.2% | 97.70% | 89.60% | 94.6% | GI% [26]: 109.50%; GI% [27]: 116.90%; GI% [22]: 99.60%; GI% [23]: 101.8%; GI% [24]: 127.0%; GI% [25]: 91.50%
COc1ccc(-c2nc3ccccc3s2)cc1OCC(=O)NN=C1C(=O)Nc2ccccc21 [Compound 9m, 2-(5-(Benzo[d]thiazol-2-yl)-2-methoxyphenoxy)-N′-(2-oxoindolin-3-ylidene) acetohydrazide] | 5.42% | 7.63% | – (GI% < 5%) | 17.38% | – (GI% < 5%) | 14.06% | – (GI% < 5%) | – (GI% < 5%) | – (GI% < 5%) | 7.23% | – (GI% < 5%) | 20.84% | 16.50% | 28.96% | – (GI% < 5%) | – (GI% < 5%) | – (GI% < 5%) | 23.70% | 40.05% | 11.23% | GI% [1]: – (GI% < 5%); GI% [22]: 25.46%; GI% [23]: 12.20%; GI% [24]: – (GI% < 5%); GI% [25]: 13.36%; melting point: 192 to 194 °C
